Experimental findings from patent publication US20060143838A1, “Herbal dye and process of preparation thereof” (COUNCIL OF SCIENTIFIC & INDUSTRIAL RESEARCH, priority 2004, published 2006) are described below.

The structures appear in SMILES notation.

One test has as its system Candida albicans. The test can be described thus: Antifungal activity of herbal black dye (disc, inhibition zone). Format: cell-based. The following applies: 25 mg/disc.
A further test deals with Aspergillus niger. The test is described as above. It counts as cell-based. The following applies: 25 mg/disc.

`COC1=CC(=O)C[C@@H](C)[C@]12Oc1c(Cl)c(OC)cc(OC)c1C2=O` [Griseofulvin]: the inhibition zone was found to be 8 mm in the test on Candida albicans and 10 mm in the test on Aspergillus niger.
